Data published in PubChem BioAssay AID248 (DTP/NCI, 2004).
Where “and” joins values, the source holds several entries; their conditions need not be identical. Equal values may be shown once. Toxic doses and inconclusive results are not listed.

System: L1210 leukemia ip in BDF1 mice, survival T/C
Assay: NCI In Vivo Anticancer Drug Screen. Data for tumor model L1210 Leukemia (intraperitoneal) in B6D2F1 (BDF1) mice
Settings: endpoint: mean survival time, higher = longer survival
Procedure, shortened: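 Each compound was tested against a transplantable tumor grown in mice. The endpoint was survival, with treated animals benchmarked against vehicle controls as a simple ratio.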

[1] = dose: 100.0 mg/kg/injection, schedule: Q01DX009 (ip), vehicle: Klucel (hydroxypropylcellulose) (HPC)
[2] = dose: 100.0 mg/kg/injection, schedule: Q04DX003 (ip), vehicle: Klucel (hydroxypropylcellulose) (HPC)
[3] = dose: 200.0 mg/kg/injection, schedule: Q01DX009 (ip), vehicle: Klucel (hydroxypropylcellulose) (HPC)
[4] = dose: 200.0 mg/kg/injection, schedule: Q04DX003 (ip), vehicle: Klucel (hydroxypropylcellulose) (HPC)
[5] = dose: 400.0 mg/kg/injection, schedule: Q01DX009 (ip), vehicle: Klucel (hydroxypropylcellulose) (HPC)
[6] = dose: 400.0 mg/kg/injection, schedule: Q04DX003 (ip), vehicle: Klucel (hydroxypropylcellulose) (HPC)
[7] = dose: 100.0 mg/kg/injection, schedule: Q01DX001 (ip), vehicle: saline
[8] = dose: 200.0 mg/kg/injection, schedule: Q01DX001 (ip), vehicle: saline
[9] = dose: 400.0 mg/kg/injection, schedule: Q01DX001 (ip), vehicle: saline
[10] = dose: 100.0 mg/kg/injection, schedule: Q04DX002 (ip), vehicle: saline with Tween-80
[11] = dose: 200.0 mg/kg/injection, schedule: Q04DX002 (ip), vehicle: saline with Tween-80
[12] = dose: 400.0 mg/kg/injection, schedule: Q04DX002 (ip), vehicle: saline with Tween-80
[13] = dose: 100.0 mg/kg/injection, schedule: Q04DX003 (ip), vehicle: saline with Tween-80
[14] = dose: 200.0 mg/kg/injection, schedule: Q04DX003 (ip), vehicle: saline with Tween-80

CCC1(c2ccccc2)C(=O)NC(=O)N(CN2CCOCC2)C1=O (stereo not drawn)
T/C (dose: 50.0 mg/kg/injection, schedule: Q01DX009 (ip), vehicle: saline with Tween-80): 114 % of control | T/C (dose: 100.0 mg/kg/injection, schedule: Q01DX009 (ip), vehicle: saline with Tween-80): 93 % of control | T/C (dose: 200.0 mg/kg/injection, schedule: Q01DX009 (ip), vehicle: saline with Tween-80): 97 % of control

OC1(C#CC2(O)c3ccccc3-c3ccccc32)c2ccccc2-c2ccccc21
T/C [1]: 93 % of control | T/C [2]: 106 % of control | T/C [3]: 97 % of control | T/C [4]: 106 % of control | T/C [5]: 93 % of control | T/C [6]: 100 % of control

CCOC1OC(CO)C(O)C(O)C1O (stereo not drawn)
T/C [7]: 102 % of control | T/C [8]: 98 % of control | T/C [9]: 109 % of control

CN(C)/C=N\c1ncnc2c1ncn2C1OC(CO)C(O)C1O (stereo not drawn)
T/C [10]: 102 % of control | T/C [11]: 98 % of control | T/C [12]: 102 % of control

CCOc1ccc(OCC)c(NC(=O)Nc2ccc(F)c([N+](=O)[O-])c2)c1
T/C [1]: 101 % of control | T/C [3]: 93 % of control | T/C [5]: 87 % of control

C=CCOc1ccccc1C
T/C (dose: 50.0 mg/kg/injection, schedule: Q01DX001 (ip), vehicle: saline): 98 % of control | T/C [7]: 95 % of control | T/C [8]: 97 % of control

O=C(COc1ccccc1)NCCBr
T/C [1]: 96 % of control | T/C [2]: 110 % of control | T/C (dose: 133.0 mg/kg/injection, schedule: Q04DX003 (ip), vehicle: Klucel (hydroxypropylcellulose) (HPC)): 98 % of control | T/C [3]: 102 % of control | T/C [4]: 98 % of control | T/C (dose: 300.0 mg/kg/injection, schedule: Q04DX003 (ip), vehicle: Klucel (hydroxypropylcellulose) (HPC)): 98 % of control | T/C [5]: 95 % of control | T/C [6]: 101 % of control

CN=C(NC)N/N=C(C)\C=N\NC(=NC)NC
T/C (dose: 1.0 mg/kg/injection, schedule: Q01DX Z (ip), vehicle: methylcellulose (MC)): 103 % of control | T/C (dose: 2.0 mg/kg/injection, schedule: Q01DX Z (ip), vehicle: methylcellulose (MC)): 92 % of control | T/C (dose: 4.0 mg/kg/injection, schedule: Q01DX Z (ip), vehicle: methylcellulose (MC)): 101 % of control | T/C (dose: 8.0 mg/kg/injection, schedule: Q01DX Z (ip), vehicle: methylcellulose (MC)): 104 % of control | T/C (dose: 15.0 mg/kg/injection, schedule: Q01DX Z (ip), vehicle: saline): 107 % of control | T/C (dose: 15.0 mg/kg/injection, schedule: Q01DX Z (oral), vehicle: methylcellulose (MC)): 104 % of control | T/C (dose: 30.0 mg/kg/injection, schedule: Q01DX Z (ip), vehicle: methylcellulose (MC)): 160 % of control | T/C (dose: 30.0 mg/kg/injection, schedule: Q01DX Z (ip), vehicle: saline): 97 % of control | T/C (dose: 30.0 mg/kg/injection, schedule: Q01DX Z (oral), vehicle: methylcellulose (MC)): 96 % of control | T/C (dose: 60.0 mg/kg/injection, schedule: Q01DX Z (ip), vehicle: saline): 103 % of control | T/C (dose: 60.0 mg/kg/injection, schedule: Q01DX Z (oral), vehicle: methylcellulose (MC)): 107 % of control | T/C (dose: 120.0 mg/kg/injection, schedule: Q01DX Z (ip), vehicle: saline): 96 % of control | T/C (dose: 120.0 mg/kg/injection, schedule: Q01DX Z (oral), vehicle: methylcellulose (MC)): 104 % of control | T/C (dose: 240.0 mg/kg/injection, schedule: Q01DX Z (ip), vehicle: saline): 100 % of control | T/C (dose: 240.0 mg/kg/injection, schedule: Q01DX Z (oral), vehicle: methylcellulose (MC)): 95 % of control | T/C (dose: 480.0 mg/kg/injection, schedule: Q01DX009 (oral), vehicle: saline): 94 % of control | T/C (dose: 480.0 mg/kg/injection, schedule: Q01DX Z (oral), vehicle: methylcellulose (MC)): 96 % of control | T/C (dose: 960.0 mg/kg/injection, schedule: Q01DX009 (oral), vehicle: saline): 94 % of control

Oc1c(Br)cc(Br)cc1C=Nc1ccc(I)cc1.Oc1c(Br)cc(Br)cc1C=Nc1ccc(I)cc1.[Co]
T/C [13]: 98 % of control | T/C [14]: 92 % of control

CCC1CN2CCc3cc(OC)c(OC)cc3C2CC1CC1c2cc(OC)c(OC)cc2CCN1C(=O)CNC(=O)OC(C)(C)C (stereo not drawn)
T/C [7]: 97 % of control | T/C [8]: 101 % of control | T/C [9]: 109 % of control

C=Cn1cc[n+](Cc2ccccc2)c1C
T/C (dose: 10.0 mg/kg/injection, schedule: Q01DX009 (ip), vehicle: saline): 101 % of control and 104 % of control | T/C (dose: 10.0 mg/kg/injection, schedule: Q04DX002 (ip), vehicle: saline): 108 % of control and 90 % of control | T/C (dose: 20.0 mg/kg/injection, schedule: Q01DX009 (ip), vehicle: saline): 105 % of control | T/C (dose: 20.0 mg/kg/injection, schedule: Q04DX002 (ip), vehicle: saline): 94 % of control and 97 % of control | T/C (dose: 40.0 mg/kg/injection, schedule: Q01DX009 (ip), vehicle: saline): 100 % of control and 116 % of control | T/C (dose: 40.0 mg/kg/injection, schedule: Q04DX002 (ip), vehicle: saline): 97 % of control and 102 % of control

CCCCCCCCCC(=O)N(CCCC)CCCC
T/C (dose: 50.0 mg/kg/injection, schedule: Q01DX009 (ip), vehicle: Klucel (hydroxypropylcellulose) (HPC)): 102 % of control | T/C [1]: 105 % of control | T/C (dose: 100.0 mg/kg/injection, schedule: Q04DX002 (ip), vehicle: saline): 95 % of control | T/C [3]: 109 % of control | T/C (dose: 200.0 mg/kg/injection, schedule: Q04DX002 (ip), vehicle: saline): 101 % of control | T/C (dose: 400.0 mg/kg/injection, schedule: Q04DX002 (ip), vehicle: saline): 88 % of control

C[N+](C)(C)C1C2(CCCCC2)NC(=O)C12CCCCC2 (stereo not drawn)
T/C (dose: 75.0 mg/kg/injection, schedule: Q01DX001 (ip), vehicle: saline): 96 % of control

O=C(Nc1ccc(Cl)c(Cl)c1)c1ccc(C(=O)Nc2ccc(Cl)c(Cl)c2)cc1
T/C [1]: 91 % of control | T/C [3]: 92 % of control | T/C [5]: 86 % of control

N/C(=N/N=C/c1ccccn1)N[N+](=O)[O-]
T/C (dose: 12.5 mg/kg/injection, schedule: Q01DX009 (ip), vehicle: saline with Tween-80): 105 % of control | T/C (dose: 12.5 mg/kg/injection, schedule: Q04DX003 (ip), vehicle: saline with Tween-80): 119 % of control | T/C (dose: 25.0 mg/kg/injection, schedule: Q01DX009 (ip), vehicle: saline with Tween-80): 101 % of control | T/C (dose: 25.0 mg/kg/injection, schedule: Q04DX003 (ip), vehicle: saline with Tween-80): 105 % of control | T/C (dose: 50.0 mg/kg/injection, schedule: Q04DX003 (ip), vehicle: saline with Tween-80): 114 % of control

CC1=C(Br)C(=O)C(c2c(C)cc(C)c(Br)c2C)=C(Br)C1=O
T/C (dose: 50.0 mg/kg/injection, schedule: Q04DX003 (ip), vehicle: Klucel (hydroxypropylcellulose) (HPC)): 111 % of control | T/C (dose: 100.0 mg/kg/injection, schedule: Q01DX001 (ip), vehicle: Klucel (hydroxypropylcellulose) (HPC)): 89 % of control | T/C [2]: 92 % of control | T/C (dose: 200.0 mg/kg/injection, schedule: Q01DX001 (ip), vehicle: Klucel (hydroxypropylcellulose) (HPC)): 87 % of control | T/C [4]: 94 % of control

O=S(=O)(O/N=C1\N=C(NOS(=O)(=O)c2ccccc2)c2ccccc21)c1ccccc1
T/C (dose: 100.0 mg/kg/injection, schedule: Q01DX001 (ip), vehicle: saline with Tween-80): 87 % of control and 92 % of control | T/C [10]: 102 % of control and 90 % of control | T/C [13]: 101 % of control | T/C (dose: 200.0 mg/kg/injection, schedule: Q01DX001 (ip), vehicle: saline with Tween-80): 97 % of control and 91 % of control | T/C [11]: 98 % of control and 92 % of control | T/C [14]: 94 % of control | T/C (dose: 400.0 mg/kg/injection, schedule: Q01DX001 (ip), vehicle: saline with Tween-80): 87 % of control and 92 % of control | T/C [12]: 112 % of control and 87 % of control | T/C (dose: 400.0 mg/kg/injection, schedule: Q04DX003 (ip), vehicle: saline with Tween-80): 92 % of control

SC1CC[N-]CC1.SC1CC[N-]CC1.[Cl][Pt+2][Cl]
T/C (dose: 25.0 mg/kg/injection, schedule: Q01DX009 (ip), vehicle: water): 96 % of control | T/C (dose: 50.0 mg/kg/injection, schedule: Q01DX009 (ip), vehicle: water): 101 % of control | T/C (dose: 100.0 mg/kg/injection, schedule: Q01DX009 (ip), vehicle: water): 96 % of control | T/C (dose: 100.0 mg/kg/injection, schedule: Q04DX003 (ip), vehicle: water): 101 % of control | T/C (dose: 200.0 mg/kg/injection, schedule: Q01DX009 (ip), vehicle: water): 98 % of control | T/C (dose: 200.0 mg/kg/injection, schedule: Q04DX003 (ip), vehicle: water): 97 % of control
